Source: US11517018B2, “Herbicidal composition comprising cinmethylin and saflufenacil” (BASF Agro B.V., priority 2015, dated 2022)
Several values for one entry are separate records, joined by “and”; a condition that tells them apart may be missing. Equal values may be shown once.

How the values were obtained:
Assay type in all cases: in vivo
Settings in all cases: 20 DAT
Sorghum halepense [1] = assay: Greenhouse preemergence herbicidal activity, SORHA
Protocol: (§1) The test plants have been seeded, separately for each species, in plastic containers in sandy loamy soil containing 5% of organic matter.
(§2) The containers were irrigated gently to promote germination and growth and subsequently covered with transparent plastic hoods until the plants had rooted.
(§3) The plants have been cultivated due to their individual requirements at 10-25° C. and 20-35° C. The plants were irrigated due to their necessity.
(§4) In the following experiments, the herbicidal activity for the individual herbicidal compositions (solo and mixture applications) was assessed 20 days after treatment (DAT).
(§5) The evaluation for the damage on undesired weeds caused by the chemical compositions was carried out using a scale from 0 to 100%, compared to the untreated control plants. Here, 0 means no damage and 100 means complete destruction of the plants.
(§6) E=X+Y−(X·Y/100) where • X=effect in percent using herbicide A at an application rate a; • Y=effect in percent using herbicide B at application rate b; • E=expected effect (in %) of herbicide A+herbicide B at application rates a+b.
(§7) The value E corresponds to the effect (plant damage or injury) which is to be expected if the activity of the individual compounds is additive. If the observed effect is higher than the value E calculated according to the Colby equation, a synergistic effect is present.

Alopecurus myosuroides = assay: Greenhouse preemergence herbicidal activity, ALOMY
Protocol: as §1, §2, §3, §4, §5, §6, §7

Polygonum convolvulus = assay: Greenhouse preemergence herbicidal activity, POLCO
Protocol: as §1, §2, §3, §4, §5, §6, §7

Geranium dissectum = assay: Greenhouse preemergence herbicidal activity, GERDI
Protocol: as §1, §2, §3, §4, §5, §6, §7

Abutilon theophrasti = assay: Greenhouse preemergence herbicidal activity, ABUTH
Protocol: as §1, §2, §3, §4, §5, §6, §7

Setaria viridis = assay: Greenhouse preemergence herbicidal activity, SETVI
Protocol: as §1, §2, §3, §4, §5, §6, §7

Chenopodium album = assay: Greenhouse preemergence herbicidal activity, CHEAL
Protocol: as §1, §2, §3, §4, §5, §6, §7

Galium aparine = assay: Greenhouse preemergence herbicidal activity, GALAP
Protocol: as §1, §2, §3, §4, §5, §6, §7

Digitaria sanguinalis = assay: Greenhouse postemergence herbicidal activity, DIGSA
Protocol: as §1
(§8) For the post emergence treatment, the plants were first grown to the 2 leaf station (GS 12). Here, the herbicidal compositions were suspended or emulsified in water as distribution medium and sprayed using finely distributing nozzels.
as §3, §4, §5, §6, §7

Lolium multiflorum [2] = assay: Greenhouse preemergence herbicidal activity, LOLMU
Protocol: as §1, §2, §3, §4, §5, §6, §7

Sorghum halepense [3] = assay: Greenhouse postemergence herbicidal activity, SORHA
Protocol: as §1, §8, §3, §4
The evaluation for the damage on undesired weeds caused by the chemical compositions was carried out using a scale from 0 to 100%, compared to the untreated control plants. Here, 0 means no damage and 100 means complete destruction of the plants. […]
as §7

Lolium multiflorum [4] = assay: Greenhouse postemergence herbicidal activity, LOLMU
Protocol: as §1, §8, §3, §4, §5, §6, §7

Stellaria media [5] = assay: Greenhouse preemergence herbicidal activity, STEME
Protocol: as §1, §2, §3, §4, §5, §6, §7

Papaver rhoeas = assay: Greenhouse preemergence herbicidal activity, PAPRH
Protocol: as §1, §2, §3, §4, §5, §6, §7

Stellaria media [6] = assay: Greenhouse postemergence herbicidal activity, STEME
Protocol: as §1, §8, §3, §4, §5, §6, §7

Avena fatua [7] = assay: Greenhouse postemergence herbicidal activity, AVEFA
Protocol: as §1, §8, §3, §4, §5, §6, §7

Avena fatua [8] = assay: Greenhouse preemergence herbicidal activity, AVEFA
Protocol: as §1, §2, §3, §4, §5, §6, §7

[9] = saflufenacil solo 0.625 g ai/ha

SMILES: CC(C)N(C)S(=O)(=O)NC(=O)c1cc(-n2c(=O)cc(C(F)(F)F)n(C)c2=O)c(F)cc1Cl [saflufenacil, N′-{2-chloro-4-fluoro-5-[1,2,3,6-tetrahydro-3-methyl-2,6-dioxo-4-(trifluoromethyl)pyrimidin-1-yl]benzoyl}-N-isopropyl-N-methylsulfamide]
- herbicidal activity (Sorghum halepense [1]; saflufenacil solo 6.25 g ai/ha): 0%
- herbicidal activity (Sorghum halepense [1]; saflufenacil solo 12.5 g ai/ha): 10%
- herbicidal activity (Sorghum halepense [1]; saflufenacil solo 25 g ai/ha): 30%
- herbicidal activity (Alopecurus myosuroides; saflufenacil solo 4.4 g ai/ha): 0%
- herbicidal activity (Alopecurus myosuroides; saflufenacil solo 8.8 g ai/ha): 0%
- herbicidal activity (Alopecurus myosuroides; saflufenacil solo 25 g ai/ha): 0%
- herbicidal activity (Polygonum convolvulus; saflufenacil solo 3.13 g ai/ha): 20%
- herbicidal activity (Polygonum convolvulus; saflufenacil solo 6.25 g ai/ha): 98%
- herbicidal activity (Polygonum convolvulus; saflufenacil solo 8.8 g ai/ha): 90%
- herbicidal activity (Geranium dissectum; saflufenacil solo 3.13 g ai/ha): 20%
- herbicidal activity (Geranium dissectum; saflufenacil solo 17.5 g ai/ha): 80%
- herbicidal activity (Abutilon theophrasti; saflufenacil solo 4.4 g ai/ha): 65%
- herbicidal activity (Abutilon theophrasti; saflufenacil solo 6.25 g ai/ha): 98%
- herbicidal activity (Abutilon theophrasti; saflufenacil solo 8.8 g ai/ha): 85%
- herbicidal activity (Abutilon theophrasti; saflufenacil solo 12.5 g ai/ha): 98%
- herbicidal activity (Setaria viridis; saflufenacil solo 4.4 g ai/ha): 0%
- herbicidal activity (Setaria viridis; saflufenacil solo 25 g ai/ha): 60%
- herbicidal activity (Setaria viridis; saflufenacil solo 50 g ai/ha): 65%
- herbicidal activity (Chenopodium album; CHEAI, saflufenacil solo 25 g ai/ha): 90%
- herbicidal activity (Chenopodium album; CHEAL, saflufenacil solo 25 g ai/ha): 90%
- herbicidal activity (Galium aparine; saflufenacil solo 3.13 g ai/ha): 0%
- herbicidal activity (Galium aparine; saflufenacil solo 6.25 g ai/ha): 20%
- herbicidal activity (Galium aparine; saflufenacil solo 17.5 g ai/ha): 95%
- herbicidal activity (Galium aparine; saflufenacil solo 25 g ai/ha): 98%
- herbicidal activity (Digitaria sanguinalis; saflufenacil solo 1.25 g ai/ha): 75%
- herbicidal activity (Lolium multiflorum [2]; saflufenacil solo 3.13 g ai/ha): 0%
- herbicidal activity (Lolium multiflorum [2]; saflufenacil solo 12.5 g ai/ha): 0%
- herbicidal activity (Sorghum halepense [3]; saflufenacil solo 5 g ai/ha): 65%
- herbicidal activity (Lolium multiflorum [4]; [9]): 0%
- herbicidal activity (Lolium multiflorum [4]; saflufenacil solo 1.25 g ai/ha): 0%
- herbicidal activity (Lolium multiflorum [4]; saflufenacil solo 5 g ai/ha): 50%
- herbicidal activity (Stellaria media [5]; saflufenacil solo 4.4 g ai/ha): 90%
- herbicidal activity (Stellaria media [5]; saflufenacil solo 6.25 g ai/ha): 95%
- herbicidal activity (Papaver rhoeas; saflufenacil solo 3.13 g ai/ha): 95%
- herbicidal activity (Papaver rhoeas; saflufenacil solo 4.4 g ai/ha): 85%
- herbicidal activity (Papaver rhoeas; saflufenacil solo 6.25 g ai/ha): 90%
- herbicidal activity (Stellaria media [6]; [9]): 85%
- herbicidal activity (Avena fatua [7]; [9]): 0%
- herbicidal activity (Avena fatua [7]; saflufenacil solo 1.25 g ai/ha): 0%
- herbicidal activity (Avena fatua [7]; saflufenacil solo 5 g ai/ha): 0%
- herbicidal activity (Avena fatua [8]; saflufenacil solo 4.4 g ai/ha): 0%
- herbicidal activity (Avena fatua [8]; saflufenacil solo 6.25 g ai/ha): 0%
- herbicidal activity (Avena fatua [8]; saflufenacil solo 8.8 g ai/ha): 0%
- herbicidal activity (Avena fatua [8]; saflufenacil solo 12.5 g ai/ha): 0%
- herbicidal activity (Avena fatua [8]; saflufenacil solo 35 g ai/ha): 20%
- herbicidal activity (Avena fatua [8]; saflufenacil solo 50 g ai/ha): 0%

SMILES: Cc1ccccc1CO[C@@H]1C[C@@]2(C(C)C)CC[C@@]1(C)O2 (racemic) [herbicide A, (±)-2-exo-(2-Methylbenzyloxy)-1-methyl-4-isopropyl-7-oxabicyclo[2.2.1]heptane]
- herbicidal activity (Sorghum halepense [1]; herbicide A solo 50 g ai/ha): 95%
- herbicidal activity (Sorghum halepense [1]; herbicide A solo 100 g ai/ha): 98%
- herbicidal activity (Sorghum halepense [1]; herbicide A solo 200 g ai/ha): 98%
- herbicidal activity (Alopecurus myosuroides; herbicide A solo 31.25 g ai/ha): 95%
- herbicidal activity (Alopecurus myosuroides; herbicide A solo 62.5 g ai/ha): 95% and 98%
- herbicidal activity (Polygonum convolvulus; herbicide A solo 25 g ai/ha): 0%
- herbicidal activity (Polygonum convolvulus; herbicide A solo 50 g ai/ha): 0%
- herbicidal activity (Polygonum convolvulus; herbicide A solo 62.5 g ai/ha): 0%
- herbicidal activity (Geranium dissectum; herbicide A solo 25 g ai/ha): 50%
- herbicidal activity (Geranium dissectum; herbicide A solo 125 g ai/ha): 80%
- herbicidal activity (Abutilon theophrasti; herbicide A solo 31.25 g ai/ha): 35%
- herbicidal activity (Abutilon theophrasti; herbicide A solo 50 g ai/ha): 0%
- herbicidal activity (Abutilon theophrasti; herbicide A solo 62.5 g ai/ha): 40%
- herbicidal activity (Abutilon theophrasti; herbicide A solo 100 g ai/ha): 0%
- herbicidal activity (Setaria viridis; herbicide A solo 31.25 g ai/ha): 95%
- herbicidal activity (Setaria viridis; herbicide A solo 62.5 g ai/ha): 90%
- herbicidal activity (Setaria viridis; herbicide A solo 125 g ai/ha): 95%
- herbicidal activity (Setaria viridis; herbicide A solo 250 g ai/ha): 98%
- herbicidal activity (Chenopodium album; CHEAI, herbicide A solo 62.5 g ai/ha): 40%
- herbicidal activity (Chenopodium album; CHEAL, herbicide A solo 125 g ai/ha): 95%
- herbicidal activity (Chenopodium album; CHEAL, herbicide A solo 500 g ai/ha): 85%
- herbicidal activity (Galium aparine; herbicide A solo 25 g ai/ha): 0%
- herbicidal activity (Galium aparine; herbicide A solo 50 g ai/ha): 0%
- herbicidal activity (Galium aparine; herbicide A solo 125 g ai/ha): 65%
- herbicidal activity (Galium aparine; herbicide A solo 200 g ai/ha): 30%
- herbicidal activity (Digitaria sanguinalis; herbicide A solo 87.5 g ai/ha): 65%
- herbicidal activity (Digitaria sanguinalis; herbicide A solo 125 g ai/ha): 85%
- herbicidal activity (Lolium multiflorum [2]; herbicide A solo 25 g ai/ha): 50%
- herbicidal activity (Lolium multiflorum [2]; herbicide A solo 62.5 g ai/ha): 30%
- herbicidal activity (Lolium multiflorum [2]; herbicide A solo 100 g ai/ha): 95%
- herbicidal activity (Lolium multiflorum [2]; herbicide A solo 125 g ai/ha): 85%
- herbicidal activity (Lolium multiflorum [2]; herbicide A solo 200 g ai/ha): 98%
- herbicidal activity (Lolium multiflorum [2]; herbicide A solo 250 g ai/ha): 98%
- herbicidal activity (Lolium multiflorum [2]; herbicide A solo 500 g ai/ha): 95%
- herbicidal activity (Sorghum halepense [3]; herbicide A solo 350 g ai/ha): 70%
- herbicidal activity (Lolium multiflorum [4]; herbicide A solo 43.8 g ai/ha): 0%
- herbicidal activity (Lolium multiflorum [4]; herbicide A solo 62.5 g ai/ha): 0%
- herbicidal activity (Lolium multiflorum [4]; herbicide A solo 87.5 g ai/ha): 0%
- herbicidal activity (Lolium multiflorum [4]; herbicide A solo 125 g ai/ha): 0%
- herbicidal activity (Lolium multiflorum [4]; herbicide A solo 350 g ai/ha): 75%
- herbicidal activity (Stellaria media [5]; herbicide A solo 31.25 g ai/ha): 40%
- herbicidal activity (Stellaria media [5]; herbicide A solo 50 g ai/ha): 20%
- herbicidal activity (Papaver rhoeas; herbicide A solo 25 g ai/ha): 0%
- herbicidal activity (Papaver rhoeas; herbicide A solo 31.25 g ai/ha): 65%
- herbicidal activity (Papaver rhoeas; herbicide A solo 50 g ai/ha): 0%
- herbicidal activity (Stellaria media [6]; herbicide A solo 43.8 g ai/ha): 0%
- herbicidal activity (Stellaria media [6]; herbicide A solo 62.5 g ai/ha): 25%
- herbicidal activity (Avena fatua [7]; herbicide A solo 43.8 g ai/ha): 25%
- herbicidal activity (Avena fatua [7]; herbicide A solo 87.5 g ai/ha): 30%
- herbicidal activity (Avena fatua [7]; herbicide A solo 350 g ai/ha): 70%
- herbicidal activity (Avena fatua [8]; herbicide A solo 31.25 g ai/ha): 30%
- herbicidal activity (Avena fatua [8]; herbicide A solo 50 g ai/ha): 0%
- herbicidal activity (Avena fatua [8]; herbicide A solo 100 g ai/ha): 20%
- herbicidal activity (Avena fatua [8]; herbicide A solo 125 g ai/ha): 35%
- herbicidal activity (Avena fatua [8]; herbicide A solo 200 g ai/ha): 50%
- herbicidal activity (Avena fatua [8]; herbicide A solo 250 g ai/ha): 60% and 70%
- herbicidal activity (Avena fatua [8]; herbicide A solo 500 g ai/ha): 80%
